Assay results: patent US11352350B2, “IRAK degraders and uses thereof” (Kymera Therapeutics, Inc., priority 2018, dated 2022)
Like-named read-outs stand apart in the source and are kept apart here.

Columns and labels:
[1] = biological target: IRAK4 (Homo sapiens (Human), UniProt Q9NWZ3); experiment: IRAK4 MSD degradation in OCI-LY10; assay type: cell-based; details: MSD
Procedure, shortened: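 OCI-LY10 cells treated with 8-point 1:3 dilutions (top 1 to 10 μM final) for 4 to 24 h at 37° C. Lysate IRAK4 measured by MSD sandwich immunoassay (2H9 capture, Y279 detection, SULFO-TAG anti-rabbit). DC50 from three-parameter logistic fit.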

[2] = test system: OCI-LY10; experiment: CTG Cell Viability Assay - OCI-LY10; assay type: cell-based, human; details: Homo sapiens, OCI-Ly10, 96 h, OCI-LY10, 4 days; read-out: CTG Cell Viability Assay - OCI-LY10: Average external-IC50
Procedure, shortened: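 OCI-LY10 cells exposed to 9-dose, 1:3 dilutions from 10 μM top (0.2% DMSO) for 4 days at 37° C, 5% CO2. Viability by CellTiter-Glo luminescence; IC50 from three-parameter logistic fit.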

[3] = OCI-LY10, 4 hrs, read-out: IRAK4 MSD degradation in OCI-LY10 at 4 hrs: Average external-Abs DC50
[4] = OCI-LY10, 24 hrs, read-out: IRAK4 MSD degradation in OCI-LY10 at 24 hrs: Average external-Abs DC50

Sequence of IRAK4 (Q9NWZ3 whole entry): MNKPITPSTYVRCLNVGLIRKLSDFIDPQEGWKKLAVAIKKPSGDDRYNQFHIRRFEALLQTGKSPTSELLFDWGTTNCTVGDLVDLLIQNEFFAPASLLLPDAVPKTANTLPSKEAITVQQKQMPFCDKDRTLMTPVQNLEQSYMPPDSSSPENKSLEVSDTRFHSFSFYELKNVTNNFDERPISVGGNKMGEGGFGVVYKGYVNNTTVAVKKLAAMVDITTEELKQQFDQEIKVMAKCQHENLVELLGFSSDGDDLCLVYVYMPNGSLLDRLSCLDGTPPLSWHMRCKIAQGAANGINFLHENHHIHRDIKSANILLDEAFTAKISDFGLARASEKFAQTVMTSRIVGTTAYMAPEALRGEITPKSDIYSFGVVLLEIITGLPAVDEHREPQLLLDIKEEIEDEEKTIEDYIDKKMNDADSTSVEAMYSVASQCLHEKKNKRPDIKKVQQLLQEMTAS

Row | SMILES | DC50 [1, 3] [µM] | DC50 [1, 4] [µM] | IC50 [2] [µM]
1 | CC[C@H]1C(COc2ncc(C#CC3CCC(CN(C)CCCOCCCc4cccc5c4n(C)c(=O)n5C4CCC(=O)NC4=O)CC3)c3cc(C(N)=O)c(OC)cc23)NC(=O)[C@H]1F (stereo partly drawn) [I-184] | 0.01 to 0.1 | 0.01 to 0.1 | > 1
2 | CC[C@@H]1[C@H](F)C(=O)N[C@@H]1COc1ncc(C#C[C@H]2CC[C@H](CN3CCC(OCCCc4cccc5c4n(C)c(=O)n5C4CCC(=O)NC4=O)CC3)CC2)c2cc(C(N)=O)c(OC)cc12 (stereo partly drawn) [I-186] | 0.01 to 0.1 | < 0.01 | > 1
3 | CC[C@@H]1[C@H](F)C(=O)N[C@@H]1COc1ncc(C#C[C@H]2CC[C@H](CN3CCC(OCCCc4ccc5c(c4)n(C)c(=O)n5C4CCC(=O)NC4=O)CC3)CC2)c2cc(C(N)=O)c(OC)cc12 (stereo partly drawn) [I-187] | > 1 | < 0.01 | > 1
4 | CC[C@@H]1[C@H](F)C(=O)N[C@@H]1COc1ccc(-c2ncn(CN(C)CCCOCCCc3cccc4c3n(C)c(=O)n4C3CCC(=O)NC3=O)n2)c2cc(C(N)=O)c(OC)cc12 (stereo partly drawn) [I-188] | 0.1 to 1 | 0.1 to 1 | > 1
5 | CC[C@@H]1[C@H](F)C(=O)N[C@@H]1COc1ncc(C#C[C@H]2CC[C@H](CN(C)C3CCN(Cc4cccc5c4n(C)c(=O)n5C4CCC(=O)NC4=O)CC3)CC2)c2cc(C(N)=O)c(OC)cc12 (stereo partly drawn) [I-189] | 0.01 to 0.1 | < 0.01 | > 1
6 | CC[C@@H]1[C@H](F)C(=O)N[C@@H]1COc1ncc(C#C[C@H]2CC[C@H](CN(C)C3CCN(Cc4ccc5c(c4)n(C)c(=O)n5C4CCC(=O)NC4=O)CC3)CC2)c2cc(C(N)=O)c(OC)cc12 (stereo partly drawn) [I-190] | 0.1 to 1 | 0.01 to 0.1 | > 1
7 | O=C1CCC(n2c3ccccc3c3c(CCCOC4CCN(C[C@H]5CC[C@H](n6cc(NC(=O)c7cnn8ccc(N9CCOCC9)nc78)c(C(F)F)n6)CC5)CC4)ccnc32)C(=O)N1 (stereo partly drawn) [I-192] | 0.01 to 0.1 |  | > 1
8 | CC[C@@H]1[C@H](F)C(=O)N[C@@H]1COc1ncc(C#CC2CCN(CCCC3CCN(Cc4ccc5c(c4)n(C)c(=O)n5C4CCC(=O)NC4=O)CC3)CC2)c2cc(C(N)=O)c(OC)cc12 (stereo partly drawn) [I-193] | 0.1 to 1 | 0.01 to 0.1 | > 1
9 | CC[C@@H]1[C@H](F)C(=O)N[C@@H]1COc1ncc(C#CC2CCN(CC3CCN(Cc4cccc5c4n(C)c(=O)n5C4CCC(=O)NC4=O)CC3)CC2)c2cc(C(N)=O)c(OC)cc12 (stereo partly drawn) [I-194] | 0.01 to 0.1 |  | > 1
10 | CN1C(=O)CCC(n2c(=O)n(C)c3c(CCCOC4CCN(C[C@H]5CC[C@H](n6cc(NC(=O)c7cnn8ccc(N9CCOCC9)nc78)c(C(F)F)n6)CC5)CC4)cccc32)C1=O (stereo partly drawn) [I-195] | 0.1 to 1 |  | > 1
11 | O=C1CCC(n2c3cccc(CCCOC4CCN(C[C@H]5CC[C@H](n6cc(NC(=O)c7cnn8ccc(N9CCOCC9)nc78)c(C(F)F)n6)CC5)CC4)c3c3cccnc32)C(=O)N1 (stereo partly drawn) [I-196] | 0.01 to 0.1 |  | > 1
12 | O=C1CCC(N2C[C@@H](c3ccc(C#CCCOC4CCN(C[C@H]5CC[C@H](n6cc(NC(=O)C7CNN8C=CC(N9CCOCC9)=NC78)c(C(F)F)n6)CC5)CC4)cc3)OC2=O)C(=O)N1 (stereo partly drawn) [I-197] | 0.01 to 0.1 |  | > 1
13 | Cn1c(=O)n(C2CCC(=O)NC2=O)c2cccc(CCCOCC3CCN(C[C@H]4CC[C@H](n5cc(NC(=O)c6cnn7ccc(N8CCOCC8)nc67)c(C(F)F)n5)CC4)CC3)c21 (stereo partly drawn) [I-198] | < 0.01 |  | > 1
14 | Cn1c(=O)n(C2CCC(=O)NC2=O)c2cccc(C3CCN(C[C@H]4CC[C@H](n5cc(NC(=O)c6cnn7ccc(N8CCOCC8)nc67)c(C(F)F)n5)CC4)CC3)c21 (stereo partly drawn) [I-199] | 0.1 to 1 |  | > 1
15 | Cn1c(=O)n(C2CCC(=O)NC2=O)c2cccc(CCCO[C@H]3CC[C@H](CN4CCC(n5cc(NC(=O)c6cnn7ccc(N8CCOCC8)nc67)c(C(F)F)n5)CC4)CC3)c21 (stereo partly drawn) [I-200] | < 0.01 |  | 0.05 to 0.1
16 | CC[C@@H]1CC(=O)N[C@@H]1COc1ncc(C#C[C@H]2CC[C@@H](CN(C)CCCOCCCc3cccc4c3n(C)c(=O)n4C3CCC(=O)NC3=O)CC2)c2cc(C(N)=O)c(OC)cc12 (stereo partly drawn) [I-201] | > 1 | 0.1 to 1 | > 1
17 | CC[C@@H]1CC(=O)N[C@@H]1COc1ncc(C#C[C@H]2CC[C@@H](CN3CCC(OCCCc4cccc5c4n(C)c(=O)n5C4CCC(=O)NC4=O)CC3)CC2)c2cc(C(N)=O)c(OC)cc12 (stereo partly drawn) [I-202] | 0.1 to 1 | 0.01 to 0.1 | > 1
18 | CC[C@@H]1CC(=O)N[C@@H]1COc1ncc(C#CC2CCN(CCCOCCCc3cccc4c3n(C)c(=O)n4C3CCC(=O)NC3=O)CC2)c2cc(C(N)=O)c(OC)cc12 (stereo partly drawn) [I-203] | > 1 | 0.1 to 1 | > 1
19 | CC[C@@H]1[C@H](F)C(=O)N[C@@H]1COc1ncc(C#CC2CCN(CCCOCCCc3cccc4c3n(C)c(=O)n4C3CCC(=O)NC3=O)CC2)c2cc(C(N)=O)c(OC)cc12 (stereo partly drawn) [I-204] | 0.1 to 1 | 0.01 to 0.1 | > 1

Row | SMILES | DC50 [1, 3] [µM] | DC50 [1, 4] [µM] | IC50 [2] [µM]
20 | CC[C@H]1C(COc2ncc(C#C[C@H]3CC[C@H](CN4CCC(OCCCc5cccc6c5c5cccnc5n6C5CCC(=O)NC5=O)CC4)CC3)c3cc(C(N)=O)c(OC)cc23)NC(=O)[C@H]1F (stereo partly drawn) [I-205] | 0.1 to 1 | 0.01 to 0.1 | > 1
21 | CC[C@@H]1[C@H](F)C(=O)N[C@@H]1COc1ncc(C#C[C@H]2CC[C@H](CN3CCC(OCCC#Cc4ccc([C@H]5CN(C6CCC(=O)NC6=O)C(=O)O5)cc4)CC3)CC2)c2cc(C(N)=O)c(OC)cc12 (stereo partly drawn) [I-206] | 0.01 to 0.1 | 0.01 to 0.1 | > 1
22 | O=C1CCC(N2C(=O)c3cccc(CCCOC4CCN(C[C@H]5CC[C@H](n6cc(NC(=O)c7cnn8ccc(N9CCOCC9)nc78)c(C(F)F)n6)CC5)CC4)c3C2=O)C(=O)N1 (stereo partly drawn) [I-207] | 0.01 to 0.1 |  | > 1
23 | O=C1CCC(N2C(=O)c3cccc(OCCCOC4CCN(C[C@H]5CC[C@H](n6cc(NC(=O)c7cnn8ccc(N9CCOCC9)nc78)c(C(F)F)n6)CC5)CC4)c3C2=O)C(=O)N1 (stereo partly drawn) [I-209] | 0.01 to 0.1 | < 0.01 | > 1
24 | O=C1CCC(N2C(=O)c3cccc(NCCOC4CCN(C[C@H]5CC[C@H](n6cc(NC(=O)c7cnn8ccc(N9CCOCC9)nc78)c(C(F)F)n6)CC5)CC4)c3C2=O)C(=O)N1 (stereo partly drawn) [I-210] | 0.01 to 0.1 | 0.01 to 0.1 | > 1
25 | Cc1nc2cccc(NCCCOC3CCN(C[C@H]4CC[C@H](n5cc(NC(=O)c6cnn7ccc(N8CCOCC8)nc67)c(C(F)F)n5)CC4)CC3)c2c(=O)n1C1CCC(=O)NC1=O (stereo partly drawn) [I-211] | > 1 | > 1 | 0.05 to 0.1
26 | CN(CCCOC1CCN(C[C@H]2CC[C@H](n3cc(NC(=O)c4cnn5ccc(N6CCOCC6)nc45)c(C(F)F)n3)CC2)CC1)c1cccc2c1C(=O)N(C1CCC(=O)NC1=O)C2=O (stereo partly drawn) [I-212] | 0.01 to 0.1 |  | > 1
27 | CN(C[C@H]1CC[C@H](n2cc(NC(=O)c3cnn4ccc(N5CCOCC5)nc34)c(C(F)F)n2)CC1)C1CCN(Cc2cccc3c2n(C)c(=O)n3C2CCC(=O)NC2=O)CC1 (stereo partly drawn) [I-213] | < 0.01 |  | > 1
28 | Cc1nc2cccc(N(C)CCCOC3CCN(C[C@H]4CC[C@H](n5cc(NC(=O)c6cnn7ccc(N8CCOCC8)nc67)c(C(F)F)n5)CC4)CC3)c2c(=O)n1C1CCC(=O)NC1=O (stereo partly drawn) [I-214] | > 1 | > 1 | > 1
29 | Cc1nc2cccc(OCCCOC3CCN(C[C@H]4CC[C@H](n5cc(NC(=O)c6cnn7ccc(N8CCOCC8)nc67)c(C(F)F)n5)CC4)CC3)c2c(=O)n1C1CCC(=O)NC1=O (stereo partly drawn) [I-215] | > 1 | > 1 | > 1
30 | Cn1c(=O)n(C2CCC(=O)NC2=O)c2cccc(CCCOC3CCN(C[C@H]4CC[C@H](n5cc(NC(=O)c6cnn7ccc(N8CCOCC8)nc67)c(C(C)(C)O)n5)CC4)CC3)c21 (stereo partly drawn) [I-216] | 0.1 to 1 |  | > 1
31 | CC(C)(O)c1nn([C@H]2CC[C@H](CN3CCC(OCCNc4cccc5c4C(=O)N(C4CCC(=O)NC4=O)C5=O)CC3)CC2)cc1NC(=O)c1cnn2ccc(N3CCOCC3)nc12 (stereo partly drawn) [I-217] | 0.1 to 1 | > 1 | 0.05 to 0.1
32 | O=C1CCC(N2C(=O)c3cccc(NC4CCN(C[C@H]5CC[C@H](n6cc(NC(=O)c7cnn8ccc(N9CCOCC9)nc78)c(C(F)F)n6)CC5)CC4)c3C2=O)C(=O)N1 (stereo partly drawn) [I-218] | 0.1 to 1 | 0.1 to 1 | > 1
33 | CC[C@@H]1CC(=O)N[C@@H]1COc1ncc(C#C[C@H]2CC[C@H](CN(C)CCCOCCCc3cccc4c3n(C)c(=O)n4C3CCC(=O)NC3=O)CC2)c2cc(C(N)=O)c(OC)cc12 (stereo partly drawn) [I-219] | 0.01 to 0.1 | 0.01 to 0.1 | > 1
34 | CN(CC1CCN(c2cccc3c2C(=O)N(C2CCC(=O)NC2=O)C3=O)CC1)C[C@H]1CC[C@H](n2cc(NC(=O)c3cnn4ccc(N5CCOCC5)nc34)c(C(F)F)n2)CC1 (stereo partly drawn) [I-220] | > 1 | 0.1 to 1 | > 1
35 | CN(C[C@H]1CC[C@H](n2cc(NC(=O)c3cnn4ccc(N5CCOCC5)nc34)c(C(F)F)n2)CC1)C1CCC(Nc2cccc3c2C(=O)N(C2CCC(=O)NC2=O)C3=O)CC1 (stereo partly drawn) [I-221] | < 0.01 |  | 0.05 to 0.1
36 | CN(C[C@H]1CC[C@H](n2cc(NC(=O)c3cnn4ccc(N5CCOCC5)nc34)c(C(F)F)n2)CC1)C1CCC(N(C)c2cccc3c2C(=O)N(C2CCC(=O)NC2=O)C3=O)CC1 (stereo partly drawn) [I-222] | 0.01 to 0.1 |  | 0.1 to 0.5
37 | CN(CCC1CCN(c2cccc3c2C(=O)N(C2CCC(=O)NC2=O)C3=O)CC1)C[C@H]1CC[C@H](n2cc(NC(=O)C3CNN4C=CC(N5CCOCC5)=NC34)c(C(F)F)n2)CC1 (stereo partly drawn) [I-223] | 0.01 to 0.1 |  | > 1
